Measured values: patent US12077503B2, “Substituted cyclic amides and their use as herbicides” (FMC CORPORATION, priority 2015, dated 2024)

What was measured:
Type in all cases: in vivo
[1] = system: barnyardgrass (Echinochloa crus-galli); assay: Test A postemergence; details: Echinochloa crus-galli, post-emergence, 240 h, read-out: Plant response rating, Barnyardgrass
In short: (§1)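 Greenhouse, ~10 d after spray; visual injury vs untreated controls, 0 = no effect, 100 = complete control. Preemergence: directed soil spray over planted seeds. Postemergence: plants 2–10 cm, 1–2 leaf stage. Loam/sand blend. Compound in non-phytotoxic solvent with surfactant.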

[2] = system: ragweed (common ragweed, Ambrosia elatior); assay: Test A postemergence; details: Ambrosia artemisiifolia, post-emergence, 240 h, postemergence, 0 to 100 scale (0 no effect, 100 complete control), read-out: Plant response rating, Ragweed
In short: as §1

[3] = system: pigweed (Amaranthus retroflexus); assay: Test A postemergence; details: Amaranthus retroflexus, post-emergence, 240 h, postemergence, 0 to 100 scale (0 no effect, 100 complete control), read-out: Plant response rating, Pigweed
In short: as §1

[4] = system: wheat (Triticum aestivum); assay: Test A postemergence; details: Triticum aestivum, post-emergence, 240 h, postemergence, 0 to 100 scale (0 no effect, 100 complete control), read-out: Plant response rating, Wheat
In short: as §1

[5] = system: corn (Zea mays); assay: Test A postemergence; details: Zea mays, post-emergence, 240 h
In short: as §1

[6] = system: Galium (catchweed bedstraw, Galium aparine); assay: Test A postemergence; details: Galium, post-emergence, 240 h, postemergence, 0 to 100 scale (0 no effect, 100 complete control), read-out: Plant response rating, Galium
In short: as §1

[7] = system: ryegrass, Italian (Italian ryegrass, Lolium multiflorum); assay: Test A postemergence; details: Lolium multiflorum, post-emergence, 240 h, postemergence, 0 to 100 scale (0 no effect, 100 complete control), read-out: Plant response rating, Ryegrass, Italian
In short: as §1

[8] = system: Kochia (Kochia scoparia); assay: Test A postemergence; details: Bassia scoparia, post-emergence, 240 h, postemergence, 0 to 100 scale (0 no effect, 100 complete control), read-out: Plant response rating, Kochia
In short: as §1

[9] = system: giant foxtail (Setaria faberii); assay: Test A postemergence; details: Setaria faberi, post-emergence, 240 h, postemergence, 0 to 100 scale (0 no effect, 100 complete control), read-out: Plant response rating, Foxtail, Giant
In short: as §1

[10] = system: barnyardgrass (Echinochloa crus-galli); assay: Test A preemergence; details: Echinochloa crus-galli, pre-emergence, 240 h, read-out: Plant response rating, Barnyardgrass
In short: as §1

[11] = system: ragweed (common ragweed, Ambrosia elatior); assay: Test A preemergence; details: Ambrosia artemisiifolia, pre-emergence, 240 h, read-out: Plant response rating, Ragweed
In short: as §1

[12] = system: pigweed (Amaranthus retroflexus); assay: Test A preemergence; details: Amaranthus retroflexus, pre-emergence, 240 h, read-out: Plant response rating, Pigweed
[13] = system: ryegrass, Italian (Italian ryegrass, Lolium multiflorum); assay: Test A preemergence; details: Lolium multiflorum, pre-emergence, 240 h, read-out: Plant response rating, Ryegrass, Italian
In short: as §1

[14] = system: Kochia (Kochia scoparia); assay: Test A preemergence; details: Bassia scoparia, pre-emergence, 240 h, read-out: Plant response rating, Kochia
In short: as §1

[15] = system: giant foxtail (Setaria faberii); assay: Test A preemergence; details: Setaria faberi, pre-emergence, 240 h, read-out: Plant response rating, Foxtail, Giant
In short: as §1

[16] = 125 g ai/ha, postemergence, visual rating after approx. 10 d, 0 to 100 scale (0 no effect, 100 complete control)
[17] = Postemergence, 500 g ai/ha, 0 to 100 scale where 0 is no effect and 100 is complete control
[18] = 125 g ai/ha, visual rating after approx. 10 d
[19] = 500 g ai/ha, visual injury, approx. 10 d
[20] = 125 g ai/ha, Preemergence, visual injury after approximately 10 d, 0 to 100 scale where 0 is no effect and 100 is complete control
[21] = 500 g ai/ha, preemergence, 0 to 100 scale, 0 = no effect, 100 = complete control

CN1C[C@H](c2ccc(F)c(F)c2)[C@@H](C(=O)Nc2cccc(F)c2F)C1=O [Compound 639, (3S,4S)—N-(2,3-difluorophenyl)-4-(3,4-difluorophenyl)-1-methyl-2-oxo-3-pyrrolidinecarboxamide]
0%: pest or weed control at 125 g/ha [2, 18]
40%: Corn plant response rating (crop injury, 0 = no effect, 100 = complete kill) at 125 g/ha [5, 16] | pest or weed control at 125 g/ha [6, 18]
30%: pest or weed control at 500 g/ha [2, 19] | pest or weed control at 125 g/ha [7, 18]
90%: pest or weed control at 125 g/ha [1, 16] | pest or weed control at 500 g/ha [1, 17] | pest or weed control at 125 g/ha [9, 18] | pest or weed control at 500 g/ha [9, 19] | pest or weed control at 125 g/ha [10, 20] | pest or weed control at 500 g/ha [10, 21] | pest or weed control at 500 g/ha [13, 21] | pest or weed control at 125 g/ha [15, 20]
70%: pest or weed control at 500 g/ha [8, 19] | pest or weed control at 500 g/ha [11, 21] | pest or weed control at 125 g/ha [14, 20]
100%: pest or weed control at 500 g/ha [15, 21]
50%: pest or weed control at 500 g/ha [3, 19] | pest or weed control at 500 g/ha [6, 19] | pest or weed control at 500 g/ha [7, 19] | pest or weed control at 125 g/ha [11, 20] | pest or weed control at 125 g/ha [12, 20]
80%: Corn plant response rating (crop injury, 0 = no effect, 100 = complete kill) at 500 g/ha [5, 17] | pest or weed control at 500 g/ha [12, 21] | pest or weed control at 500 g/ha [14, 21]
20%: pest or weed control at 125 g/ha [3, 18]
60%: plant injury at 125 g/ha [4, 18] | plant injury at 500 g/ha [4, 19] | pest or weed control at 125 g/ha [8, 18] | pest or weed control at 125 g/ha [13, 20]
